Data from ChEMBL document CHEMBL3639375, “Œ=-lactamase inhibitors” (2013).

Tests used:
[1] = target: Beta-lactamase (Pseudomonas aeruginosa, UniProt Q8RL90); assay: (§1) Spectrophotometric Assay: Enzyme activities were measured in the presence of the test inhibitor in spectrophotometric assay.
[2] = target: Beta-lactamase (Klebsiella pneumoniae, UniProt Q93LQ9); assay: as §1
Sequence of Beta-lactamase (Klebsiella pneumoniae, UniProt Q93LQ9) (Q93LQ9 whole entry): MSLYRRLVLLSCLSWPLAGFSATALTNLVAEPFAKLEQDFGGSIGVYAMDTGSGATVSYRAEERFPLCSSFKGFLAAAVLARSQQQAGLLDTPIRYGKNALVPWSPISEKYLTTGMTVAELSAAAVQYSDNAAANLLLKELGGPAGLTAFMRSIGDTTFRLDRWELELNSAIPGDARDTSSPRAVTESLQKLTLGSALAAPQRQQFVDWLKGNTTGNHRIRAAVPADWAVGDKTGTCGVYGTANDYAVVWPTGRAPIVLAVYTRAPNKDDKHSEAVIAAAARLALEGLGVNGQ

Sequence of Beta-lactamase (Pseudomonas aeruginosa, UniProt Q8RL90) (Q8RL90 whole entry): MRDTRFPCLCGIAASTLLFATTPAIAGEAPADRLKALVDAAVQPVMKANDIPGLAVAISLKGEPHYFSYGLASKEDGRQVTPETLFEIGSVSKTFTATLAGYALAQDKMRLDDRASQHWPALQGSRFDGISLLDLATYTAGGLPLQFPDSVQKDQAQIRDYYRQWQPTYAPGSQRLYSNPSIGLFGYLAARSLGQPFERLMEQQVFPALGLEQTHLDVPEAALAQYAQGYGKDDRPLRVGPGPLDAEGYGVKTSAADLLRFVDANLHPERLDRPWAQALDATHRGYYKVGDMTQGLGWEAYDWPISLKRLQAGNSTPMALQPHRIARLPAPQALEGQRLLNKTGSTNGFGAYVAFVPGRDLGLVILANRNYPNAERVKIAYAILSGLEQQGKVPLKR

| Structure (SMILES) | IC50 [1] | IC50 [2] |
| --- | --- | --- |
| O=C(NC1CCCNCC1)[C@@H]1CCC2CN1C(=O)N2OS(=O)(=O)O (stereo partly drawn) | 69 nM | – |
| O=C(Nc1ccncc1)[C@@H]1CCC2CN1C(=O)N2OS(=O)(=O)O (stereo partly drawn) | 6 nM | – |
| O=C(Nc1ccc2c(c1)CCNC2)[C@@H]1CCC2CN1C(=O)N2OS(=O)(=O)O (stereo partly drawn) | – | 19 nM |
